# Assay: Pharmacokinetics in MDA-MB-231 xenograft tumor-bearing mice (LC-MS/MS)
# Format: in vivo
# Description: Analytical LC-MS/MS conditions: Compound levels in plasma and tissues for in vivo pharmacokinetic (PK) studies were monitored by LC-MS/MS using an AB Sciex (Framingham, MA) 6500^+ QTRAP® mass spectrometer coupled to a Shimadzu (Columbia, MD) Prominence LC. Analytes were detected with the mass spectrometer in positive MRM (multiple reaction monitoring) mode by following the precursor to fragment ion transition 705.3→592.3. An Agilent C18 XDB column (5 micron, 50×4.6 mm) was used for chromatography for PK studies with the following conditions: Buffer A: dH2O+0.1% formic acid, Buffer B: methanol+0.1% formic acid, 0-1.0 min 5% B, 1.0-2 min gradient to 98% B, 2-3.0 min 98% B, 3.0-3.2 min gradient to 5% B, 3.2-4.5 min 5% B. Tolbutamide (transition 271.2 to 91.2) from Sigma (St. Louis, MO) was used as an internal standard (IS). Pharmacokinetic studies were performed in MDA-MB-231 xenograft tumor-bearing female NOD-SCID mice. ERX-41 was given either orally or intraperitoneally (10 mg/kg single dose). Animals were sacrificed in groups of three, blood was obtained by cardiac puncture at each time point (0, 0.5, 1.5, 3, 6 and 24 hours post dose) using the anticoagulant EDTA and plasma isolated by centrifugation. Tumor and liver were also collected and snap frozen in liquid nitrogen after rinsing with PBS to remove surface adhering blood. Tissues were homogenized in a 3-fold volume (weight by volume) of PBS to generate a homogenate. 100 μl of plasma or tissue homogenate was mixed with 200 μl of methanol containing 0.15% formic acid and 15 ng/mL tolbutamide IS. The samples were vortexed 15 sec, incubated at room temp for 10 min and spun twice at 16,100×g 4° C. in a refrigerated microcentrifuge. The amount of compound present in plasma, tumor and liver was quantified by LC-MS/MS to determine the amount of compound in each matrix. Standard curves were generated using blank plasma (Bioreclamation, Westbury, NY, RRID:SCR_004728) or blank tissue homogenate spiked with known concentrations of test compound and processed as described above. The concentrations of drug in each time-point sample were quantified using Analyst 1.7.1 software (Sciex). A value of 3-fold above the signal obtained from blank plasma or tissue homogenate was designated the limit of detection (LOD). The lower limit of quantitation (LLOQ) was defined as the lowest concentration at which back calculation yielded a concentration within 20% of theoretical and which was above the LOD. The LLOQ for plasma and tumor was 0.1 ng/mL and 1 ng/mL in liver. PK parameters, Cmax, Tmax, Terminal T½ (calculated as Ln(2)/λz), AUClast (area under the concentration time curve to the last measured value determined by linear trapezoidal rule), Cl (clearance measured as Dose/AUCinf), and Vz (volume of distribution based on the terminal phase=Dose/AUCinf*λz) were calculated using the noncompartmental analysis tool of Phoenix WinNonLin version 8.01 (Certara/Pharsight, Sunnyvale, CA, RRID:SCR_003163).
smiles,measurement,setting,value
CC(C)COc1cc(C(=O)Nc2ccc(C(=O)N[C@H]3CC[C@H](C)CC3)cc2OCC(C)C)ccc1NC(=O)c1ccc([N+](=O)[O-])c(OCCO)c1 [ERX-41],drug level in treated tumor tissues at 24 h,10 mg/kg single dose,detectable levels of ERX-41 at 24 h
same,oral bioavailability,"mouse, in vivo, po",orally bioavailable
same,time to detection in liver and kidneys,oral administration,≤ 4 h
same,time to detection in subcutaneous MDA-MB-231 xenograft tumors,oral or intraperitoneal administration,≤ 1.5 h
same,time of peak detectable levels in plasma,"oral, 10 mg/kg single dose",4 h
